Laboratory results as given in patent US20080139842A1, “Medicament for preventive and/or therapeutic treatment of diseases with secretory disorder” (R&R INC., priority 2006, published 2008).

Assays:
Format in all cases: in vivo, female NOD/Shi Jic mice
[1] = system: pancreatic islets of Langerhans of NOD mice; assay: Evaluation in NOD mice: histopathological evaluation of pancreases (islets of Langerhans); conditions: 1 mg/kg mixed in feed over 19 weeks, N = 6; for Pancreatic La islet lymphocyte infiltration score (average): score 0 no lesion, 1 slight, 2 moderate, 3 severe, control group 2.7
Source text: (§1) NOD mice have been used as spontaneous type I diabetes and Sjoegren's syndrome model animals. Lymphocyte infiltration lesions similar to those of type I diabetes are developed in the pancreatic islets of Langerhans, and lymphocyte infiltration lesions similar to those of Sjoegren's syndrome are developed in the salivary glands (Eur. J. Immunol., 28, pp. 3336-3345, 1998). To female NOD/Shi Jic mice at 6 weeks of age, tamibarotene (Am80, 4-[(5,6,7,8-tetrahydro-5,5,8,8-tetramethyl-2-naphthalenyl)carbamoyl]benzoic acid) was administered over 19 weeks by mixing it in feed. During the test period, urinalysis was conducted once every week to measure urinary sugar. Test paper for urinalyses, Pre Test 3aII (Wako Pure Chemical Industries), was immersed in mouse fresh urine, and when a determined glucose value was 2,000 mg/dl or higher, the mouse was judged to be with diabetes. When the mice gave a sign of physical agony, they were euthanized. After the end of the administration period, pancreases and submaxillary glands were extracted from the euthanized mice, and fixed by immersion in a neutrally buffered 10% formalin fixation solution. From the fixed pancreases and submaxillary glands, hematoxin-eosin stained histopathological specimens were prepared, and the influence of tamibarotene on the pancreases and salivary glands was histopathologically evaluated. For each of the tamibarotene-administered group and the control group, 6 mice were used.
The results are indicated by numbers of urinary sugar positive mice, scores for destruction of the pancreatic islets of Langerhans (henceforth occasionally abbreviated as “Pancreatic La islet”) associated with lymphocyte infiltration (Pancreatic La islet lymphocyte infiltration score), scores for decrease in number of the pancreatic islets of Langerhans (Pancreatic La islet number score), and submaxillary gland lymphocyte infiltration scores. The scores were determined according to the following criteria.
0: No lesion was observed

[2] = system: submaxillary glands of NOD mice; assay: Evaluation in NOD mice: histopathological evaluation of submaxillary glands (Sjoegren's syndrome model); conditions: 1 mg/kg mixed in feed over 19 weeks, N = 6, score 0 no lesion to 3 severe, control group 1.7
Source text: as §1, with “For each of the tamibarotene-administered group and the control group, 6 mice were used.” left out

[3] = system: NOD mice (spontaneous type I diabetes model); assay: Evaluation in NOD mice: weekly urinalysis for urinary sugar (diabetes onset); conditions: 1 mg/kg mixed in feed over 19 weeks from 6 weeks of age, N = 6, positive = urinary glucose 2,000 mg/dl or higher, control group 2/6
Source text: as §1, with “For each of the tamibarotene-administered group and the control group, 6 mice were used.” left out

CC1(C)CCC(C)(C)c2cc(NC(=O)c3ccc(C(=O)O)cc3)ccc21 [Tamibarotene, 4-[(5,6,7,8-tetrahydro-5,5,8,8-tetramethyl-2-naphthalenyl)carbamoyl]benzoic acid]
Pancreatic La islet lymphocyte infiltration score (average) [1]: 1.7
Pancreatic La islet lymphocyte infiltration score (average) ([1]; listed as tamibarotene): apparently reduced
Pancreatic La islet number score (average) ([1]; score for decrease in number of islets, score 0 no lesion to 3 severe, control group 1): 0
Submaxillary gland lymphocyte infiltration score (average) [2]: 0.8
Submaxillary gland lymphocyte infiltration score (average) ([2]; listed as tamibarotene): reduced
Urinary sugar positive mice [3]: 0/6
Urinary sugar positive mice ([3]; listed as tamibarotene): no urinary sugar positive mouse was observed
